From US20080241194A1, “COMPOSITIONS AND METHODS FOR PROTECTING ORGANS, TISSUE AND CELLS FROM IMMUNE SYSTEM-MEDIATED DAMAGE” (THE BOARD OF TRUSTEES OF THE LELAND STANFORD JUNIOR …, priority 1998, published 2008)
Ends that are not written are not given here.

Assays:
OCI-Ly8 tumor cell = assay: ^51Cr release CIK cytotoxicity assay, tumor targets; type: cell-based, human; conditions: peptide 10 μM, E:T 20:1
Description: (§1) Target cells were metabolically labelled with ^51Cr (Dupont—New England Nuclear, Boston, Mass.) by incubating 1×10^6 cells in […] ^51Cr at 37° C. for 1-1.5 hours. The labelled cells were washed three times with phosphate buffered saline (PBS) containing 0.1% bovine serum albumin. The labelled cells were distributed in flat-bottomed 96 well microtiter plates at a concentration of 2×10^4 cells/well in triplicate. Effector (CIK) cells were added at the indicated ratios. Mabs were added prior to the addition of effector cells, and incubated for 15-30 minutes at room temperature. The final volume of the assay mixture in each well was 0.2 ml. After 4 hours at 37° C., the cells were collected by centrifugation and an aliquot of the supernatant was counted in a gamma counter (Micromedic Systems, Horsham, Pa.). The percentage of specific ^51Cr release was calculated according to the following equation: […]
Spontaneous release was obtained by incubating the labelled cells in complete medium alone and maximal release by treatment of the cells with 1% NP-40. […]

[1] = Solubility of synthesized peptide; type: physicochemical; conditions: used in PBS and RPMI 1640
Description: A hydrophilic 9 mer peptide of the sequence […] (SEQ ID NO:3) which corresponds to the region of shared homology of Hsp47 with HLA-A2 was synthesized by the Stanford PAN facility on a BioApplied® peptide synthesizer, HPLC purified and verified by amino acid sequencing. Pure peptide was lyophilized and stored at −20° C.

HUVEC = assay: ^51Cr release CIK cytotoxicity assay, endothelial cell targets pre-treated with BFA, protein or peptide; type: cell-based, human
Description: as §1
Spontaneous release was obtained by incubating the labelled cells in complete medium alone and maximal release by treatment of the cells with 1% NP-40.
For brefeldin A (BFA) treatment, freshly confluent HUVEC monolayers, nonadherent target cells or CIK cells at 0.5-2×10^6 cells per ml were incubated with medium supplemented with 0.5-10 μg of brefeldin A (B6hringer Mannheim GmbH, Mannheim, Germany) per ml medium and incubated for 2-6 hours in a humidified incubator with 5% carbon dioxide at 37° C. BFA was dissolved at 100 μg per ml in 70% ethanol and used fresh or stored up to 4 weeks at −20° C. Prior to cytotoxicity assay the cells were rinsed three times with PBS, and fresh medium not containing BFA was added for the remainder of the assay (FIG. 4).
Both HUVEC and OCI-Ly8 cells were incubated with BFA at concentrations of 0, 2.5, 5, 7.5 and 10 μM for 6 hours as described above, washed, labeled with ^51Cr and used in a cytotoxicity assay with d21 CIK cells at an E:T ratio of 20:1. Preincubation of EC targets with 2.5 μM BFA reduced CIK mediated cytotoxicity by 40%.
Subsequent to ^51Cr labeling but prior to addition of effector cells 10-200 μg FPLC purified Hsp47 (Example 7) protein or 10 nM to 10 μM HPLC purified peptide […] (SEQ ID NO:3) (Example 8), both in sterile PBS at pH 7.4 and diluted to the final concentration with RPMI, were added to targets per ml of medium and incubated for 30 minutes at 37° C. in a humidified atmosphere of 5% CO2. In assays using purified protein, targets were subjected to three subsequent washes with 10 volumes of Ca^2+, Mg^2+ and 5% FCS containing PBS prior to providing fresh standard culture medium to the target cells. In assays using purified peptide, the added peptide was present for the entire assay. The remainder of the assay was performed as detailed above, at 37° C. in a humidified atmosphere of 5% CO2.

granzyme A = molecular target: T1, granzyme A (Homo sapiens, UniProt P12544); assay: BLT esterase or SDS-PAGE gelshift assays with granzymes; type: biochemical; conditions: data not shown
T1 sequence (P12544 29-262): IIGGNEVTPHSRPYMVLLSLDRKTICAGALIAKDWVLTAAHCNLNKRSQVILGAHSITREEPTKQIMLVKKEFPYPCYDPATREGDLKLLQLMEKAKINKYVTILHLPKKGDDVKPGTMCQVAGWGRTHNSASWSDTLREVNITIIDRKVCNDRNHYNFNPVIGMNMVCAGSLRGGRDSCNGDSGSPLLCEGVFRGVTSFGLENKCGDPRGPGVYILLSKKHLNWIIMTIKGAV
From the text: By sequence homology, Hsp47 is a serine protease inhibitor with theoretical specificity for lysine at the active site of incoming serine proteases. Serpins act as “bait” representing cleavable substrates which form a stable instead of a transitory covalent bond with the active center of serine proteases. […] Thus, serpins inactivate serine proteases in a stoichiometric ratio of 1:1. Despite the sequence relationship, no substrate serine protease has so far been identified for Hsp47. Some authors expect the serpin-domain to be nonfunctional because its “active site” amino acids are modified (Hirayoshi et al., Mol Cell Biol 11:4036-4044 (1991)). […] In ^51Cr-release assays, deletion of the serpin domain led to loss of function of the affected truncation mutants. However, as further deletions of the gene re-established full function to the smaller truncated Hsp47 mutants, expressing then little more than the H1,A-A2-consensus region discussed below, we assume that the loss of function of the C-terminal truncation of Hsp47's serpin domain causes a conformational change in the protein which normalizes with further truncation. […]

Balb/c mice = assay: Murine GvHD model, bone marrow transplant; type: in vivo, mouse; conditions: for protection from GvHD: 300 μg Hsp47-Gst protein with graft cells, single injection day 0, monitored 4 weeks, 5 animals
Description: Male Balb/c mice were twice irradiated with 500 Rads prior to transplantation. Bone marrow (BM) and spleen derived stem cells were obtained from B10D2 (H-2^d background) mice. 2.5×10^6 BM and 1×10^6 spleen cells were pooled as a graft source for each recipient male Balb/c animal. This non-enriched stem cell population of cells were either suspended in RPMI containing 300 μg Hsp47-Gst protein in 300 μl total volume, or, in buffer containing 100 μg of Gst control protein alone. Cells and protein were given in a single injection on day 0. No other immunosuppressive treatments were given. Animals were monitored for 4 weeks after the bone marrow transplant.

major serine proteases = conditions: Davids et al. 1995; cited from earlier work

AVLSAEQLR
reduction of specific target lysis, CIK-OCI-Ly8 tumor cell ^51Cr cytotoxicity assay (OCI-Ly8 tumor cell): less than 10% | solubility in aqueous solution [1]: soluble in aqueous solution

huHsp47-GST protein: fusion protein of human Hsp47 and N-terminally tagged glutathione-S-transferase, expressed in bacteria
reduction of EC lysis (HUVEC; 1 μM huHsp47-GST protein): 50% | protection of EC by purified recombinant protein (HUVEC; dose response): protects EC in a dose responsive fashion | protection of EC from CIK mediated lysis (HUVEC; pre-incubation with 10 μM huHsp47-GST protein): completely protects | irreversible inhibition of granzymes (granzyme A): not able to demonstrate a function of Hsp47 as an irreversible inhibitor | protection from GvHD (Balb/c mice): none developed graft vs. host disease | protection from GvHD (Balb/c mice; listed as Hsp-Gst protein): protected from the onset of GvHD, fur ruffling, weight loss and death | opportunistic infection (Balb/c mice; full body irradiated mice, BMT, over the time period tested): none developed opportunistic infection

B1: murine Hsp47: purified murine Hsp47 from cited work (protein, UniProt P19324 18-417, looked up)
Serpin H1: AEVKKPLEAAAPGTAEKLSSKATTLAERSTGLAFSLYQAMAKDQAVENILLSPLVVASSLGLVSLGGKATTASQAKAVLSAEKLRDEEVHTGLGELLRSLSNSTARNVTWKLGSRLYGPSSVSFADDFVRSSKQHYNCEHSKINFRDKRSALQSINEWASQTTDGKLPEVTKDVERTDGALLVNAMFFKPHWDEKFHHKMVDNRGFMVTRSYTVGVTMMHRTGLYNYYDDEKEKLQMVEMPLAHKLSSLIILMPHHVEPLERLEKLLTKEQLKAWMGKMQKKAVAISLPKGVVEVTHDLQKHLAGLGLTEAIDKNKADLSRMSGKKDLYLASVFHATAFEWDTEGNPFDQDIYGREELRSPKLFYADHPFIFLVRDNQSGSLLFIGRLVRPKGDKMRDEL
inhibition of major serine proteases (major serine proteases): failed to inhibit
